Reference: article PMC11882969 (Nature Communications, 2025)
“And” between values parts separate entries of the source, which are not always exact repeats. Equal entries are not always repeated.

What was measured:
hCB1 [1] = target: T1, hCB1 (Homo sapiens, UniProt P21554); test: bioSensAll ebBRET signaling profiling, hCB1; type: cell-based; set-up: host or cells: HEK293SL cells, transient PEI transfection; conditions: for Barr2+GRK2 hCB1 response: Barr2+GRK2 biosensor; for Gi1 hCB1 / GoB hCB1: single replicate values, FigS6a
T1 sequence (P21554 whole entry): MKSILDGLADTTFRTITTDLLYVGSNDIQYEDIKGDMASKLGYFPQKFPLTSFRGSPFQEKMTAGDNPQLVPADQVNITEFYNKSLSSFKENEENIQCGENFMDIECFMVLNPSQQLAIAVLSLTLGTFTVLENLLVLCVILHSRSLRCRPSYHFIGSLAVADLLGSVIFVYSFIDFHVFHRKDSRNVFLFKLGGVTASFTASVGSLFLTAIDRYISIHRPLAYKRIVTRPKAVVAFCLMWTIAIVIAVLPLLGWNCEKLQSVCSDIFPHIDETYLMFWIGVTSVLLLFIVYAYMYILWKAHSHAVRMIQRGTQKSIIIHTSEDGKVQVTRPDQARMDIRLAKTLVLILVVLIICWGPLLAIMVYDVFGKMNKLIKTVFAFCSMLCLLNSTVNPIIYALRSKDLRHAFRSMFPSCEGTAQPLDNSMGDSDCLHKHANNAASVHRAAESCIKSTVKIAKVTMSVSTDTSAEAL

hCB1 [2] = target: T1, hCB1; test: Lance Ultra cAMP accumulation assay, CHO cells; type: cell-based; set-up: expressed in transfected cells; conditions: replicates, sheet FigureS2a;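 note: human CB1R stably expressed in CHO cells, ligands co-incubated with forskolin at room temperature, read-out is lowering of forskolin-stimulated cAMP accumulation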
Method: The inhibition of forskolin-stimulated cAMP accumulation assays was carried out using PerkinElmer’s Lance Ultra cAMP kit following the manufacturer’s protocol. In brief, CHO cells stably expressing human CB1R (provided by the lab of Laura Bohn) were harvested by incubation with Versene (ThermoFisher Scientific, Waltham, MA) for 10 min, washed once with Hank’s Balanced Salt Solution, and resuspended in stimulation buffer at ~200 cells/μL density. The ligands at eight different concentrations (0.001-10,000 nM) in stimulation buffer (5 μL) containing forskolin (2 μM final concentration) were added to a 384-well plate followed by the cell suspension (5 μL; ~1000 cells/well). The plate was incubated for 30 min at room temperature. Eu-cAMP tracer (5 μL) and Ulight-anti-cAMP (5 μL) working solutions were then added to each well, and the plate was incubated at room temperature for an additional 60 min. Results were measured on a Perkin-Elmer EnVision plate reader. The EC50 values were determined by nonlinear regression analysis using Graphpad Prism 9 and are expressed as the mean of three experiments, each performed in triplicate.

CB1 (rCB1) [3] = target: T2, CB1 (rCB1) (Rattus norvegicus, UniProt P20272); test: Radioligand competition binding, [3H]-CP-55,940, rat brain membranes
T2 sequence (P20272 whole entry): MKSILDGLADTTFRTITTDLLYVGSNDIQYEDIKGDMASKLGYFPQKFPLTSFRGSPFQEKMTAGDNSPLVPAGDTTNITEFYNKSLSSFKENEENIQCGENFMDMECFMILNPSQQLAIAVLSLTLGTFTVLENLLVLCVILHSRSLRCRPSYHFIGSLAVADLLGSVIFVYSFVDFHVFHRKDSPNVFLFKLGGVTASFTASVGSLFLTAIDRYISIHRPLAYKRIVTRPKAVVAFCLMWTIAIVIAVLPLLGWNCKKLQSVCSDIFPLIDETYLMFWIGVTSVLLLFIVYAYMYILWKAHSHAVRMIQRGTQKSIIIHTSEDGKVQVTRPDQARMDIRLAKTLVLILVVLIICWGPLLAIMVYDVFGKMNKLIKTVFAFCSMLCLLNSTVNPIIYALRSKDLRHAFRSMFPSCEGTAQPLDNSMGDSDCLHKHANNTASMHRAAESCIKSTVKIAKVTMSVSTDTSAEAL

CB1 (rCB1) [4] = target: T2, CB1 (rCB1); test: Single-point radioligand displacement screen; type: binding

Cc1nc(CC2CC2)oc1-c1nc(Cc2cc3c(cc2Br)OCO3)no1 [‘7019]
Barr2+GRK2 hCB1 response (hCB1 [1]; Log [Compound] (M) -4.22186): 62.2028 | Barr2+GRK2 hCB1 response (hCB1 [1]; Log [Compound] (M) -4.63927): 5.727 | Barr2+GRK2 hCB1 response (hCB1 [1]; Log [Compound] (M) -5.05788): -5.441 | Barr2+GRK2 hCB1 response (hCB1 [1]; Log [Compound] (M) -5.47381): -3.845 | Barr2+GRK2 hCB1 response (hCB1 [1]; Log [Compound] (M) -5.89285): 30.2955 | Barr2+GRK2 hCB1 response (hCB1 [1]; Log [Compound] (M) -6.31878): 10.513 | Barr2+GRK2 hCB1 response (hCB1 [1]; Log [Compound] (M) -6.72585): 12.1083 | Barr2+GRK2 hCB1 response (hCB1 [1]; Log [Compound] (M) -7.14267): 9.875 | Barr2+GRK2 hCB1 response (hCB1 [1]; Log [Compound] (M) -7.55284): -7.674 | Barr2+GRK2 hCB1 response (hCB1 [1]; Log [Compound] (M) -8): 3.174 | Barr2+GRK2 hCB1 response (hCB1 [1]; Log [Compound] (M) -8.22186): 10.513 | Barr2+GRK2 hCB1 response (hCB1 [1]; Log [Compound] (M) -8.39794): 2.217 | Barr2+GRK2 hCB1 response (hCB1 [1]; Log [Compound] (M) -8.68787): -30.0093 | Barr2+GRK2 hCB1 response (hCB1 [1]; Log [Compound] (M) -9.15521): -44.3676 | Barr2+GRK2 hCB1 response (hCB1 [1]; Log [Compound] (M) -9.61989): -29.3712 | Barr2+GRK2 hCB1 response (hCB1 [1]; Log [Compound] (M) -10.0969): -17.8845 | Barr2+GRK2 hCB1 response (hCB1 [1]; Log [Compound] (M) -10.5529): -36.0717 | Barr2+GRK2 hCB1 response (hCB1 [1]; Log [Compound] (M) -11.0177): -47.2392 | Barr2+GRK2 hCB1 response (hCB1 [1]; Log [Compound] (M) -11.4949): -38.6243 | Barr2+GRK2 hCB1 response (hCB1 [1]; Log [Compound] (M) -11.9208): -22.6706 | Barr2+GRK2 hCB1 response (hCB1 [1]; Log [Compound] (M) -12.3979): -32.5619 | Barr2+GRK2 hCB1 response (hCB1 [1]; Log [Compound] (M) -12.8861): -24.5851 | Barr2+GRK2 hCB1 response (hCB1 [1]; Log [Compound] (M) -13.3979): -2.25 | Gi1 hCB1 (hCB1 [1]; Log [Compound] (M) -4.22186): -7.329 | GoB hCB1 (hCB1 [1]; Log [Compound] (M) -4.22186): -13.0099 | Gi1 hCB1 (hCB1 [1]; Log [Compound] (M) -4.63927): -8.042 | GoB hCB1 (hCB1 [1]; Log [Compound] (M) -4.63927): -13.6002 | Gi1 hCB1 (hCB1 [1]; Log [Compound] (M) -5.05788): -10.1639 | GoB hCB1 (hCB1 [1]; Log [Compound] (M) -5.05788): -11.5515 | Gi1 hCB1 (hCB1 [1]; Log [Compound] (M) -5.47381): -10.5282 | GoB hCB1 (hCB1 [1]; Log [Compound] (M) -5.47381): -15.1627 | Gi1 hCB1 (hCB1 [1]; Log [Compound] (M) -5.89285): -9.467 | GoB hCB1 (hCB1 [1]; Log [Compound] (M) -5.89285): -15.9787 | Gi1 hCB1 (hCB1 [1]; Log [Compound] (M) -6.31878): -6.569 | GoB hCB1 (hCB1 [1]; Log [Compound] (M) -6.31878): -12.489 | Gi1 hCB1 (hCB1 [1]; Log [Compound] (M) -6.72585): -4.716 | GoB hCB1 (hCB1 [1]; Log [Compound] (M) -6.72585): -9.694 | Gi1 hCB1 (hCB1 [1]; Log [Compound] (M) -7.14267): 3.012 | GoB hCB1 (hCB1 [1]; Log [Compound] (M) -7.14267): -8.531 | Gi1 hCB1 (hCB1 [1]; Log [Compound] (M) -7.55284): 0.08255 | GoB hCB1 (hCB1 [1]; Log [Compound] (M) -7.55284): -6.326 | Gi1 hCB1 (hCB1 [1]; Log [Compound] (M) -8): 2.236 | GoB hCB1 (hCB1 [1]; Log [Compound] (M) -8): -8.913 | Gi1 hCB1 (hCB1 [1]; Log [Compound] (M) -8.22186): 3.4083 | GoB hCB1 (hCB1 [1]; Log [Compound] (M) -8.22186): -2.3673 | Gi1 hCB1 (hCB1 [1]; Log [Compound] (M) -8.39794): 2.078 | GoB hCB1 (hCB1 [1]; Log [Compound] (M) -8.39794): -8.01 | Gi1 hCB1 (hCB1 [1]; Log [Compound] (M) -8.68787): 0.1776 | GoB hCB1 (hCB1 [1]; Log [Compound] (M) -8.68787): -4.607 | Gi1 hCB1 (hCB1 [1]; Log [Compound] (M) -9.15521): -0.1708 | GoB hCB1 (hCB1 [1]; Log [Compound] (M) -9.15521): -5.336 | Gi1 hCB1 (hCB1 [1]; Log [Compound] (M) -9.61989): 0.4151 | GoB hCB1 (hCB1 [1]; Log [Compound] (M) -9.61989): -6.256 | Gi1 hCB1 (hCB1 [1]; Log [Compound] (M) -10.0969): -0.8202 | GoB hCB1 (hCB1 [1]; Log [Compound] (M) -10.0969): -5.6139 | Gi1 hCB1 (hCB1 [1]; Log [Compound] (M) -10.5529): 1.635 | GoB hCB1 (hCB1 [1]; Log [Compound] (M) -10.5529): -5.77 | Gi1 hCB1 (hCB1 [1]; Log [Compound] (M) -11.0177): 0.2092 | GoB hCB1 (hCB1 [1]; Log [Compound] (M) -11.0177): -3.426 | Gi1 hCB1 (hCB1 [1]; Log [Compound] (M) -11.4949): -0.7251 | GoB hCB1 (hCB1 [1]; Log [Compound] (M) -11.4949): -5.058 | Gi1 hCB1 (hCB1 [1]; Log [Compound] (M) -11.9208): -0.5034 | GoB hCB1 (hCB1 [1]; Log [Compound] (M) -11.9208): -3.392 | Gi1 hCB1 (hCB1 [1]; Log [Compound] (M) -12.3979): 1.698 | GoB hCB1 (hCB1 [1]; Log [Compound] (M) -12.3979): -7.2806 | Gi1 hCB1 (hCB1 [1]; Log [Compound] (M) -12.8861): 0.8586 | GoB hCB1 (hCB1 [1]; Log [Compound] (M) -12.8861): -4.763 | Gi1 hCB1 (hCB1 [1]; Log [Compound] (M) -13): 6.94 | GoB hCB1 (hCB1 [1]; Log [Compound] (M) -13): -5.215 | Gi1 hCB1 (hCB1 [1]; Log [Compound] (M) cell empty): 3.028 | GoB hCB1 (hCB1 [1]; Log [Compound] (M) cell empty): -6.482 | cAMP assay signal, concentration-response point (hCB1 [2]; compound 0.01 nM): 0.00339 and 0.00303 and 0.003953 | cAMP assay signal, concentration-response point (hCB1 [2]; compound 0.1 nM): 0.003311 (2×) and 0.004082 | cAMP assay signal, concentration-response point (hCB1 [2]; compound 1 nM): 0.003289 and 0.004926 and 0.003401 | cAMP assay signal, concentration-response point (hCB1 [2]; compound 10 nM): 0.003247 and 0.002457 and 0.002907 | cAMP assay signal, concentration-response point (hCB1 [2]; compound 100 nM): 0.002793 and 0.0025 and 0.003861 | cAMP assay signal, concentration-response point (hCB1 [2]; compound 1000 nM): 0.003175 and 0.003571 and 0.003759 | cAMP assay signal, concentration-response point (hCB1 [2]; compound 10000 nM): 0.00431 and 0.005952* and 0.003571 | cAMP assay signal, concentration-response point (hCB1 [2]; compound 100000 nM): 0.0007716 and 0.001742 and 0.0006817 | radioligand binding remaining, competition curve (Figure2e), replicate values (CB1 (rCB1) [3]; log[drug] -3.643): 14.0395 and 10.3537 and 12.7126 | radioligand binding remaining, competition curve (Figure2e), replicate values (CB1 (rCB1) [3]; log[drug] -4.35655): 11.9492 and 13.8721 and 12.5783 | radioligand binding remaining, competition curve (Figure2e), replicate values (CB1 (rCB1) [3]; log[drug] -5.07): 46.5819 and 49.8809 and 53.387 | radioligand binding remaining, competition curve (Figure2e), replicate values (CB1 (rCB1) [3]; log[drug] -5.783): 89.8305 and 82.4446 and 90.6893 | radioligand binding remaining, competition curve (Figure2e), replicate values (CB1 (rCB1) [3]; log[drug] -6.496): 105.085 and 92.9907 and 91.4056 | radioligand binding remaining, competition curve (Figure2e), replicate values (CB1 (rCB1) [3]; log[drug] -7.21): 98.1356 and 103.28 and 99.3733 | radioligand binding remaining, competition curve (Figure2e), replicate values (CB1 (rCB1) [3]; log[drug] -7.923): 89.0395 and 99.5785 and 100.597 | radioligand binding remaining, competition curve (Figure2e), replicate values (CB1 (rCB1) [3]; log[drug] -8.636): 97.4011 and 107.312 and 98.9257 | pKi [95% CI] (CB1 (rCB1) [3]; rCB1): 5.39 [5.27 –5.52] | % 1H-CP-55,940 displacement (mean) from single point screen (CB1 (rCB1) [4]; 10 µM, 1 µM or 300 nM by cell colour (not visible)): 69.08% | rep1_displacement (CB1 (rCB1) [4]; Figure 1c source data, replicate 1): 67.1 | rep2_displacement (CB1 (rCB1) [4]; Figure 1c source data, replicate 2): 70.3 | rep3_displacement (CB1 (rCB1) [4]; Figure 1c source data, replicate 3): 69.9
